One data set deals with T1, COX1 (Ovis aries, UniProt P05979).
T1 construct: purchased
T1 sequence (P05979 25-600): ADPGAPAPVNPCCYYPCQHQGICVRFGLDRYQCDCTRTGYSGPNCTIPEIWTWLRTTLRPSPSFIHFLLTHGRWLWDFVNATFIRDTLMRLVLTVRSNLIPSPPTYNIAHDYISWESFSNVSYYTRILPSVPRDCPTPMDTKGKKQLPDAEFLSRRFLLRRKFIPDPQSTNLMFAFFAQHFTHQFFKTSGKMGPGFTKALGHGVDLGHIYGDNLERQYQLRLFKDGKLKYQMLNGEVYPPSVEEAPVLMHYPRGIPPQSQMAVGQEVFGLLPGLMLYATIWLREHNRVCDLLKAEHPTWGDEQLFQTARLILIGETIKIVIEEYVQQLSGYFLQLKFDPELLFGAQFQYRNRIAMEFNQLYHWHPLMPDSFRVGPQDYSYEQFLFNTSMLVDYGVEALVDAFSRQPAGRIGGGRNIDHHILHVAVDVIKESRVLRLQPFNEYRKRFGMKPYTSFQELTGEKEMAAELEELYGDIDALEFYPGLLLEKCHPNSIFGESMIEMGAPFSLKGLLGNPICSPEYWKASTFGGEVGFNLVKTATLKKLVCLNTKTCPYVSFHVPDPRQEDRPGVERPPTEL
The data set can be described thus: Cyclooxygenase (COX1) inhibitory assay, ovine/human COX inhibitor assay kit. In kind it is biochemical. Particulars: n = 3, mean ± SD. Here is the method: (§1) After that, 10 µL of arachidonic acid (100 µM), after 2 min of 1 M HCl of 50 µL and Ellman’s reagent, was added. The absorbance at 410 nm was measured spectrophotometrically against the blank. The selectivity index was calculated as follows:SI = IC50 COX1/IC50 COX2

A further data set addresses T2, COX2 (Homo sapiens, UniProt P35354).
T2 construct: purchased
T2 sequence (P35354 18-604): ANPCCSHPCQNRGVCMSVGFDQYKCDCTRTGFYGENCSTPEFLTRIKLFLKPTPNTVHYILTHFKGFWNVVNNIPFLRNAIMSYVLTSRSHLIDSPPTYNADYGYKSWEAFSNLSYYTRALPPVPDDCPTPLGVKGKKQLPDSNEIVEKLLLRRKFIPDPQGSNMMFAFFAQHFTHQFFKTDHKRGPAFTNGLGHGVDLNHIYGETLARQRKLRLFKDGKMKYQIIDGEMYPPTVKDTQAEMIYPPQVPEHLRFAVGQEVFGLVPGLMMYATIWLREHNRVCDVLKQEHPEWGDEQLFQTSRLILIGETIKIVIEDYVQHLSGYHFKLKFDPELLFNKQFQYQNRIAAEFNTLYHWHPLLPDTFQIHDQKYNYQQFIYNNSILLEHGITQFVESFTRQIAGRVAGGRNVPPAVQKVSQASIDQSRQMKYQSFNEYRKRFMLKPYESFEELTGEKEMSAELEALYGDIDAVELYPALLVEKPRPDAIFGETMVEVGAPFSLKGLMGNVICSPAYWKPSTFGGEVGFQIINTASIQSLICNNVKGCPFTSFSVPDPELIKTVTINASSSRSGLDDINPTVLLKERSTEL
The data set can be described thus: Cyclooxygenase (COX2) inhibitory assay, ovine/human COX inhibitor assay kit. It is filed as biochemical. Here is the method:
as §1

The target of the next data set is T3, human recombinant 5-LOX (Homo sapiens, UniProt P09917).
T3 construct: purchased
T3 sequence (P09917 1-674): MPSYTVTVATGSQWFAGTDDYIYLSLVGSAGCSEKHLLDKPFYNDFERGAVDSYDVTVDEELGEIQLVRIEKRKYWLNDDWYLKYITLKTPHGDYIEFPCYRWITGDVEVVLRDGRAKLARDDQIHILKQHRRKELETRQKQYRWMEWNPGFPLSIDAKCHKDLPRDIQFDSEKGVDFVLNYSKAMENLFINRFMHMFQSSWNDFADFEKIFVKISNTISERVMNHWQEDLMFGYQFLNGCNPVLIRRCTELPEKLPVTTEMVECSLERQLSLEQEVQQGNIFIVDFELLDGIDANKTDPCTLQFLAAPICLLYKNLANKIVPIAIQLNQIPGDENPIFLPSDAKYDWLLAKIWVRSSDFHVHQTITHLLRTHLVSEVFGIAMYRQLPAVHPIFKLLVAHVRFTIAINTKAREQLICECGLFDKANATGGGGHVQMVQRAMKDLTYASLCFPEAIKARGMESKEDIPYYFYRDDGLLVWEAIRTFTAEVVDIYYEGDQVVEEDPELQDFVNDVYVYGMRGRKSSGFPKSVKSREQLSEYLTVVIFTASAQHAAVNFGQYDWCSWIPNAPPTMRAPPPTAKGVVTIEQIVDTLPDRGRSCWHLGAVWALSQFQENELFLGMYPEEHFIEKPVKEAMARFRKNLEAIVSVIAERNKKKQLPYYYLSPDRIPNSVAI
The data set can be described thus: 5-Lipoxygenase inhibitory assay (5-LOX assay kit). In kind it is biochemical. The protocol:
The MAS 1696 was tested against human recombinant 5-LOX using a 5-LOX assay kit. Briefly, 5-LOX solution (90 µL) was added with various MAS-1696 concentrations. The arachidonic acid (10 µL) was further added and the absorbance was measured at 490 nm against the blank.

Data set [1] deals with carrageenan-induced paw edema. The data set can be described thus: Rat paw edema test induced by carrageenan. It is filed as in vivo, Wistar rats. Particulars: carrageenan 1% w/v, 2 h and 4 h, S-naproxen 15 mg/kg p.o., 4-allyl guaiacol 15.46 mg/kg, n = 6. The protocol:
In vivo studies were performed as per the guidelines issued by the WHO, Geneva. The protocol was approved by the IAEC for animal handling. The Wistar rats (male; 225–250 g) and ICR mice (20–25 g) were procured from the Animal House facility of Panjab University Chandigarh. The anti-inflammatory activity of MAS-1696 was determined by injecting carrageenan in rat paws as published by us previously. The different groups of rats with six animals in each group were administered the drug. The fresh solution of carrageenan (Type IV, 0.1 mL, 1%) was used to induce acute edema by injecting it under the plantar aspect of the left hind paw. One […] (0.9%) of saline was administered to the right paw (control group). A plethysmometer was used to measure the change in the paw volume between two and four hours after the carrageenan challenge.

The subject of a further data set is stomach (gastric ulcers). The data set can be described thus: Determination of ulcer index (gastric damage). In kind it is in vivo, rats. Particulars: S-naproxen 120 mg/kg p.o., equimolar doses of MAS-1696 or physical mixture; 4 h after treatment; n = 6. Here is the method:
The fasting rats were separated into four groups (n = 6). […] After 4 h of treatment, animals were sacrificed and the stomach was separated. This removed stomach was opened along the greater curvature and cleaned using saline to check for ulcers. The ulcers were graded as: 0—Normal texture stomach 0.5—Red coloration 1.0—Spot of ulcers 1.5—Hemorrhagic streaks 2.0—Ulcers up to 3 3.0—Ulcers above 3

Data set [2] can be described thus: Partition/distribution coefficient (log P), shake flask method with HPLC. Particulars: 1-octanol–0.05 M phosphate buffer pH 7.4, 25 °C, n = 2. In kind it is physicochemical. Here is the method:
(§2) The chromatographic purity of the compound MAS-1696, partition coefficient, chemical stability, and metabolic stability were assessed using RP-HPLC. An isocratic elution system of acetonitrile-methanol-water-acetic acid (70:18:12:0.01) was used. An injection volume of 10 µL and flow rate of 1 mL/min with a relative standard deviation of 0.5% reproducibility was maintained.
The aqueous phase and 1-octanol were stirred overnight. The MAS-1696 in 1-octanol (2 mL) and phosphate buffer (5 mL) was stirred at 25 °C in a water bath shaker for 8 h. Both layers were separated and filtered through Millipore’s 0.22 µm nylon membrane filter. The 1-octanol layer was diluted appropriately before being injected into the HPLC. The log P was determined by using the following equation:log Poct/wat = log ([solute]octanol)/([solute]unionized water)

Data set [3] can be described thus: Aqueous solubility in buffer pH 7.4 (HPLC). It is filed as physicochemical. Particulars: aqueous buffer of pH 7.4, HPLC.
A short description of data set [4]: In vitro stability in simulated gastric fluid (HCl buffer pH 2). It is filed as physicochemical. Particulars: for % MAS-1696 Left in the Simulated Gastric Fluid of pH 2: 37 °C. The protocol:
as §2
The HCl buffer (pH 2) at 37 °C was used to evaluate the chemical stability of MAS-1696. To a 400 µL solution of MAS-1696 (10 mg/mL in chloroform), 3.6 mL of HCl buffer (pH 2) was added and kept on a shaker plate at 37 °C. Aliquots (400 µL) collected at different time points were mixed with 1600 µL of acetonitrile. After centrifugation, the supernatant was subjected to HPLC analysis. The remaining percentage of MAS-1696 was determined using the formula:% remaining = (peak area at the respective time (min)/peak area at 0 min) × 100

A short description of data set [5]: In vitro human plasma stability. In kind it is in vitro ADME. Particulars: for % MAS-1696 Left in Human Plasma: 37 °C. The protocol: as §2
To a 50 µL solution of MAS-1696 (10 mg/mL in chloroform), 900 µL of human plasma was added and kept on a shaker plate at 37 °C. Aliquots (100 µL) were collected at different intervals and mixed with 900 µL of acetonitrile for precipitation of proteins. After centrifugation, the supernatant was subjected to HPLC analysis. The remaining percentage of the conjugate was calculated using the formula:% remaining = (peak area at the respective time (min)/peak area at 0 min) × 100.

Molecules are shown by their SMILES. “And” between values parts separate entries of the source, which are not always exact repeats. Equal entries are not always repeated. “Also recorded” adds a separate entry of the source. Where two headings read alike, the source gives them in different places.

We go through two molecules from article PMC9609004, “Computational Design, Synthesis, and Pharmacological Evaluation of Naproxen-Guaiacol Chimera for Gastro-Sparing Anti-Inflammatory Response by Selective COX2 Inhibition” (Molecules, 2022).

By IC50 is commonly meant the concentration that gives 50% inhibition. Usually logP stands for a log measure of how a compound divides between an organic and an aqueous phase. Low readings indicate a more hydrophilic compound, high ones a more lipophilic compound. By melting point is commonly meant the temperature of the solid-liquid transition.

Molecule `C=CCc1ccc(OC(=O)[C@@H](C)c2ccc3cc(OC)ccc3c2)c(OC)c1` [MAS-1696, (S)-4-Allyl-2-methoxyphenyl 2-(2-methoxynaphthalen-6-yl)propanoate] gave a melting point of 99 to 100 °C. Moreover, at COX1, inhibition was half-maximal at 8.5 µM (IC50). Also, the “Selectivity Index” value on COX2 (SI = IC50 COX1/IC50 COX2) is recorded as 1.1. Moreover, the IC50 on COX2 (n = 3, mean ± SD, read-out: IC50 COX2 (converted)) is 7.76 µM. The “Rise in selectivity for COX2 over COX1 (COX selectivity index) compared to naproxen” value at COX2 (vs parent compound naproxen) is on record as 23%. Moreover, the IC50 at human recombinant 5-LOX (n = 3, mean ± SD, read-out: IC50 5-LOX (converted)) was 28.5 µM. Besides, the “Anti-inflammatory effect (edema, paw volume)” value (shortened to “Anti-inflammatory effect”) in data set [1] is “anti-inflammatory potency comparable or even superior to S-naproxen”. The “Anti-inflammatory effect” value in [1] (listed as MAS1696) is listed as “better anti-inflammatory effect when compared with S-naproxen”. The “Ulcer score / gastric damage” value with stomach (gastric ulcers) is listed as “considerably less damage; also recorded: significantly less stomach damage”. For the same molecule, the log partition coefficient (logP) at 8 h in [2] stood at 4.7 ± 0.26. Besides, in data set [3], the “Solubility (pH 7.4)” value is listed as “BDL”. In addition, the “% MAS-1696 Left in the Simulated Gastric Fluid of pH 2” value (from here on “% MAS-1696 Left … of pH 2”) in [4] (0 h) is recorded as 100%. Further, the “% MAS-1696 Left … of pH 2” value in [4] (2 h) is on record as 96.16%. Besides, the “% MAS-1696 Left … of pH 2” value in [4] (5 h) is reported as 90.72%. For the same molecule, the “% MAS-1696 Left … of pH 2” value in data set [4] (8 h) is recorded as 83.30%. Besides, the “% MAS-1696 Left … of pH 2” value in data set [4] (12 h) is 77% and 77.03%. Also, the “% of MAS-1696 hydrolyzed in simulated gastric fluid” value (“% of MAS-1696 hydrolyzed” below) in [4] (pH 2, 0 h) is 0%. For the same molecule, the “% of MAS-1696 hydrolyzed” value in [4] (pH 2, 2 h) is recorded as 3.84%. Further, the “% of MAS-1696 hydrolyzed” value in data set [4] (pH 2, 5 h) is listed as 9.28%. Also, in data set [4] (pH 2, 8 h), the “% of MAS-1696 hydrolyzed” value is given as 16.7%. Also, the “% of MAS-1696 hydrolyzed” value in [4] (pH 2, 12 h) was 22.97%. Further, the “% MAS-1696 Left in Human Plasma” value in data set [5] (0 min) was found to be 100%. Besides, the “Hydrolysis in human plasma (in words)” value in data set [5] (80% human plasma, 0, 30 and 60 min) is given as “completely hydrolyzed within half an hour; also recorded: readily hydrolyzed”. Besides, the “% MAS-1696 Left in Human Plasma” value in data set [5] (30 min) is recorded as 0%. Besides, the “% MAS-1696 Left in Human Plasma” value in [5] (60 min) was found to be 0%.

Take `COc1ccc2cc([C@H](C)C(=O)O)ccc2c1` [Naproxen, S-naproxen]: the IC50 is 20.1 µM on COX2 and 36.5 µM at human recombinant 5-LOX. Further, in [1], the “Anti-inflammatory effect” value is “significant decrease in the edema and paw volume”. Further, in the data set on stomach (gastric ulcers), the “Ulcer score / gastric damage” value is listed as “substantial rise in ulcer score compared with the control”.
